Laboratory results: ChEMBL document CHEMBL1148557, “Identification and initial evaluation of 4-N-aryl-[1,4]diazepane ureas as potent CXCR3 antagonists” (Bioorg Med Chem Lett, 2006)

Legend:
[1] = biological target: D(2) dopamine receptor (Homo sapiens) (UniProt P14416); test: Inhibitory activity against D2S receptor by radioligand binding assay at 10 uM
[2] = biological target: T1, Muscarinic acetylcholine receptor M2 (Homo sapiens) (UniProt P08172); test: Inhibitory activity against M2 receptor by radioligand binding assay at 10 uM
T1 sequence (whole entry): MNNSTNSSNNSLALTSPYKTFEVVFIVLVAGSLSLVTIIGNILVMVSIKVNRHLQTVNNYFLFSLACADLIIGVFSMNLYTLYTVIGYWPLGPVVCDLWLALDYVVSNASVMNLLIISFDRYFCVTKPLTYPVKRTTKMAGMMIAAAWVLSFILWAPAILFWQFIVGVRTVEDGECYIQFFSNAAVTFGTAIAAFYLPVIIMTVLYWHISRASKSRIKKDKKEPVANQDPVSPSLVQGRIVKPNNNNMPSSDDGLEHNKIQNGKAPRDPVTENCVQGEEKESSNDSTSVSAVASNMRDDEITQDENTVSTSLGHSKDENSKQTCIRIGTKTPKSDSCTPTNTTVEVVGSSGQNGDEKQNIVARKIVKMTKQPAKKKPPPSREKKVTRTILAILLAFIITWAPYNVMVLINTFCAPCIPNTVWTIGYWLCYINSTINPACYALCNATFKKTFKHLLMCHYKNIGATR

[3] = biological target: T2, C-C chemokine receptor type 4 (Homo sapiens) (UniProt P51679); test: Inhibitory activity against CCR4 receptor by radioligand binding assay at 10 uM
T2 sequence (whole entry): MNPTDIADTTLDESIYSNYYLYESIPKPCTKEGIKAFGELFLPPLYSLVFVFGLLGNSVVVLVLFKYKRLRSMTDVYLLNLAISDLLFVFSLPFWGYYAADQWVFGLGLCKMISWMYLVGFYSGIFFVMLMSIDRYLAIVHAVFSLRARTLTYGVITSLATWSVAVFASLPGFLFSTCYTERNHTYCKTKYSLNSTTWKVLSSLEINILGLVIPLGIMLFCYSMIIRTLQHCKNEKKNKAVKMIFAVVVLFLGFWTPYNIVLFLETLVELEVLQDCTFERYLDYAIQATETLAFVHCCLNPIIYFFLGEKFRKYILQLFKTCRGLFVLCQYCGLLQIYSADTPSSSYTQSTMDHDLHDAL

[4] = biological target: D(3) dopamine receptor (Homo sapiens) (UniProt P35462); test: Inhibitory activity against D3 receptor by radioligand binding assay at 10 uM
[5] = biological target: T3, C-X-C chemokine receptor type 2 (Homo sapiens) (UniProt P25025); test: Inhibitory activity against […](IL-8B) receptor by radioligand binding assay at 10 uM
T3 sequence (whole entry): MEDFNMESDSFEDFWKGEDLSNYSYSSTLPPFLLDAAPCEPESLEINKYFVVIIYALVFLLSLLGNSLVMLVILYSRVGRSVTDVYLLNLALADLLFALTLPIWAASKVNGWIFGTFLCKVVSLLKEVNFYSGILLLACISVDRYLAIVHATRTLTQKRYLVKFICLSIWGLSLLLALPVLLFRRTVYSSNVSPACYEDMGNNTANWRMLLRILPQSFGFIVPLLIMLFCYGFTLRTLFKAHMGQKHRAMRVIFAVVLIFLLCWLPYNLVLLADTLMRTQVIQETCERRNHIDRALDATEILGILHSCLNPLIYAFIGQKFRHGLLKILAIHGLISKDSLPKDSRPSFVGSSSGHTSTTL

[6] = biological target: T4, D(4) dopamine receptor (Homo sapiens) (UniProt P21917); test: Inhibitory activity against D4.2 receptor by radioligand binding assay at 10 uM
T4 sequence (whole entry): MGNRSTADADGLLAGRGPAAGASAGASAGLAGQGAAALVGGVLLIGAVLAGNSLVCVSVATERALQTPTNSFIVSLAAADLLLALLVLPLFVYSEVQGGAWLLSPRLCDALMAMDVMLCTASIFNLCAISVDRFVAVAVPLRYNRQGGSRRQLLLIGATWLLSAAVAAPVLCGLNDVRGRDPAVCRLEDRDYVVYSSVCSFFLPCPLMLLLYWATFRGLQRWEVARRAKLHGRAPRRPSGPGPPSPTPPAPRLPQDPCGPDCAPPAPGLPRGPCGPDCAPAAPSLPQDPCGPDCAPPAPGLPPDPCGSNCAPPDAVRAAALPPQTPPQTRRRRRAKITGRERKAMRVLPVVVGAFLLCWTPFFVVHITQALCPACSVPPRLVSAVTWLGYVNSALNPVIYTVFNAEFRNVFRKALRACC

[7] = biological target: T5, Muscarinic acetylcholine receptor M1 (Homo sapiens) (UniProt P11229); test: Inhibitory activity against M1 receptor by radioligand binding assay at 10 uM
T5 sequence (whole entry): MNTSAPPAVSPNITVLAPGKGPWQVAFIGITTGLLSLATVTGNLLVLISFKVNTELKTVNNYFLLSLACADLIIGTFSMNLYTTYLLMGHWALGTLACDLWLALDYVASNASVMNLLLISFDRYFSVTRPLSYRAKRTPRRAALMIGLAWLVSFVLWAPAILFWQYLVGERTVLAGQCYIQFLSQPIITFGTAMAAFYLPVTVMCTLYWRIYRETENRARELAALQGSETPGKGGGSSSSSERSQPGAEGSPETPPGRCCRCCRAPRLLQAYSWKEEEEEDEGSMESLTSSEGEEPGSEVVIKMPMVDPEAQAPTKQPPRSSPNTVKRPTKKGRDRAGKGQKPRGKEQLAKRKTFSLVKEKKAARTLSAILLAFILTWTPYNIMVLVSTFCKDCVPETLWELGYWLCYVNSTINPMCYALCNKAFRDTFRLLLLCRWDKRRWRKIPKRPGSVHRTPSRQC

D(3) dopamine receptor (Homo sapiens), sequence (P35462 whole entry): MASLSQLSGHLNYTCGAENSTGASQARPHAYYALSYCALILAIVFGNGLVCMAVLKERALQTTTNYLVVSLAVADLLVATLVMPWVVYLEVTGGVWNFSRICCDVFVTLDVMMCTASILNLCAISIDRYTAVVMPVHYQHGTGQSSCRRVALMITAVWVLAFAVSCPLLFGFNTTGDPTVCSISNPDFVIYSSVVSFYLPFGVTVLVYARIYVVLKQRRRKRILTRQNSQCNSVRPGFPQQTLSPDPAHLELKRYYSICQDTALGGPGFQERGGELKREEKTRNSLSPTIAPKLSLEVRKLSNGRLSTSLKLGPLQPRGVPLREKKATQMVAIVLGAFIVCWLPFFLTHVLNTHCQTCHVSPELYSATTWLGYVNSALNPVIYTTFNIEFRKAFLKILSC
D(2) dopamine receptor (Homo sapiens), sequence (P14416 whole entry): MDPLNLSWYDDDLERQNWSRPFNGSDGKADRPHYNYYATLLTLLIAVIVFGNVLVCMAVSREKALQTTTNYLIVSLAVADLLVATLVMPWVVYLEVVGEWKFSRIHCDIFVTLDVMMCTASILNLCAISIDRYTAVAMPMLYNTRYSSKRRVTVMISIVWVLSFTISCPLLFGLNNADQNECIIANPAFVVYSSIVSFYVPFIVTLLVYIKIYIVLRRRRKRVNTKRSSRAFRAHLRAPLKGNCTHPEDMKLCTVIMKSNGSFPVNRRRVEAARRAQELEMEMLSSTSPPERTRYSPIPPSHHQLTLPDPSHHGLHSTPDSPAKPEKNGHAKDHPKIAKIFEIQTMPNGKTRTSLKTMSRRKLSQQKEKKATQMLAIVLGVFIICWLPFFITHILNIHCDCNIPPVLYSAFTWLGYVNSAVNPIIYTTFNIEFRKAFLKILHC

- inhibition [1]: < 50%
- inhibition [2]: < 50%
- inhibition [3]: < 50%
- inhibition [4]: < 50%
- inhibition [5]: < 50%
- inhibition [6]: < 50%
- inhibition [7]: < 50%
Compound: CCNC(=O)N1CCCN(c2ccc(C(=O)NCCc3ccc(Cl)cc3Cl)cc2NC(=O)c2cccc(Cl)c2)CC1
